Experiments:
Assay in all cases: relative viability (nuclei count vs DMSO), 5 days (fraction); higher = more cells survive
[1] = compound: CCC1=CN=CN=C1N2CCN(CC2)CC3=NC4=C(N3)C=C(C=C4)C(F)(F)F + O=C(c1cc(Cc2n[nH]c(=O)c3ccccc23)ccc1F)N1CCN(C(=O)C2CC2)CC1 [Olaparib] (partner 8 µM)
Method in brief: (§1)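 Relative viability was taken as the ratio of nuclei in treated wells to nuclei in vehicle wells. Lung cancer cell lines in 1536-well plates received compounds by pin tool one day after seeding, either one drug alone or a fixed anchor-drug dose plus five library-drug doses (not always all listed) in √10 steps. Nuclei were counted on 4× images after 5 days of treatment, and values are medians of duplicate plates.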

[2] = compound: CCn1c(-c2nonc2N)nc2cnc(Oc3cccc(NC(=O)c4ccc(OCCN5CCOCC5)cc4)c3)cc21 + O=C(c1cc(Cc2n[nH]c(=O)c3ccccc23)ccc1F)N1CCN(C(=O)C2CC2)CC1 [Olaparib] (partner 8 µM)
Method in brief: as §1

[3] = compound: CCn1c(-c2nonc2N)nc2cnc(Oc3cccc(NC(=O)c4ccc(OCCN5CCOCC5)cc4)c3)cc21 + N=C(N)NC(=N)NCCc1ccccc1 [Phenformin] (partner 250 µM)
Method in brief: as §1

[4] = compound: CCn1c(-c2nonc2N)nc2cnc(Oc3cccc(NC(=O)c4ccc(OCCN5CCOCC5)cc4)c3)cc21 + Nc1nc2[nH]cc(CCc3ccc(C(=O)N[C@@H](CCC(=O)O)C(=O)O)cc3)c2c(=O)[nH]1 [Pemetrexed] (partner 0.2 µM)
Method in brief: as §1

| Cell Line | relative viability ([1]; first compound 0.04 µM) | relative viability ([1]; first compound 0.1265 µM) | relative viability ([1]; first compound 0.4 µM) | relative viability ([1]; first compound 1.265 µM) | relative viability ([1]; first compound 4 µM) | relative viability ([2]; first compound 0.04 µM) | relative viability ([2]; first compound 0.1265 µM) | relative viability ([2]; first compound 0.4 µM) | relative viability ([2]; first compound 1.265 µM) | relative viability ([2]; first compound 4 µM) | relative viability ([3]; first compound 0.04 µM) | relative viability ([3]; first compound 0.1265 µM) | relative viability ([3]; first compound 0.4 µM) | relative viability ([3]; first compound 1.265 µM) | relative viability ([3]; first compound 4 µM) | relative viability ([4]; first compound 0.04 µM) | relative viability ([4]; first compound 0.1265 µM) | relative viability ([4]; first compound 0.4 µM) | relative viability ([4]; first compound 1.265 µM) | relative viability ([4]; first compound 4 µM) |
| --- | --- | --- | --- | --- | --- | --- | --- | --- | --- | --- | --- | --- | --- | --- | --- | --- | --- | --- | --- | --- |
| A549 | 0.318 | 0.179 | 0.333 | 0.333 | 0.387 | 0.499 | 0.343 | 0.122 | 0.0557 | 0.102 | 0.303 | 0.151 | 0.0713 | 0.0328 | 0.0406 | – | – | – | – | – |
| NCI-H2342 | 0.51 | 0.402 | 0.384 | 0.275 | 0.34 | 0.439 | 0.508 | 0.469 | 0.368 | 0.361 | 0.71 | 0.585 | 0.581 | 0.449 | 0.66 | 0.75 | 0.782 | 0.736 | 0.474 | 0.76 |
| NCI-H1623 | – | – | – | – | – | – | – | – | – | – | 0.629 | 0.594 | 0.499 | 0.536 | 0.605 | – | – | – | – | – |
| SW 1573 | 0.447 | 0.462 | 0.45 | 0.443 | 0.379 | 0.594 | 0.4 | 0.287 | 0.24 | 0.183 | 0.513 | 0.345 | 0.344 | 0.282 | 0.154 | 0.913 | 0.821 | 0.535 | 0.32 | 0.261 |
| NCI-H2085 | 0.717 | 0.692 | 0.728 | 0.777 | 0.72 | 0.832 | 0.693 | 0.632 | 0.573 | 0.559 | 0.787 | 0.676 | 0.596 | 0.551 | 0.559 | 0.888 | 0.591 | 0.601 | 0.591 | 0.664 |
| NCI-H520 | 0.291 | 0.415 | 0.349 | 0.333 | 0.298 | 0.432 | 0.347 | 0.264 | 0.237 | 0.237 | 0.887 | 0.631 | 0.404 | 0.306 | 0.288 | 1.01 | 0.662 | 0.634 | 0.372 | 0.336 |
| Calu-6 | 0.681 | 0.591 | 0.523 | 0.556 | 0.483 | 0.569 | 0.528 | 0.541 | 0.381 | 0.328 | – | – | – | – | – | – | – | – | – | – |
| SK-LU-1 | 0.452 | 0.438 | 0.47 | 0.443 | 0.442 | 0.571 | 0.305 | 0.327 | 0.235 | 0.257 | 0.488 | 0.409 | 0.333 | 0.251 | 0.238 | 0.918 | 0.906 | 0.772 | 0.457 | 0.372 |
| LCLC-103H | 0.798 | 0.733 | 0.743 | 0.718 | 0.707 | 0.908 | 0.816 | 0.712 | 0.717 | 0.715 | 0.421 | 0.286 | 0.182 | 0.216 | 0.222 | 0.394 | 0.444 | 0.36 | 0.345 | 0.419 |
| HCC-15 | 0.688 | 0.727 | 0.685 | 0.762 | 0.668 | 0.745 | 0.737 | 0.766 | 0.581 | 0.542 | 0.532 | 0.362 | 0.269 | – | 0.364 | 0.229 | 0.214 | 0.217 | 0.197 | 0.205 |
| H3255 | 0.597 | 0.535 | 0.556 | 0.504 | 0.521 | 0.532 | 0.542 | 0.501 | 0.364 | 0.383 | 0.455 | 0.35 | 0.332 | 0.322 | 0.358 | 0.528 | 0.512 | 0.503 | 0.432 | 0.431 |
| NCI-H1792 | 0.895 | 0.406 | 0.369 | – | 0.399 | 0.449 | 0.345 | 0.338 | 0.244 | 0.37 | 0.333 | 0.177 | 0.0802 | 0.145 | 0.225 | 0.972 | 0.724 | 0.228 | 0.274 | 0.449 |
| NCI-H1563 | – | – | – | – | – | – | – | – | – | – | 0.592 | 0.61 | 0.507 | 0.582 | 0.553 | 0.82 | 0.769 | 0.694 | 0.595 | 0.734 |
| NCI-H647 | 0.458 | 0.528 | 0.452 | 0.519 | 0.408 | 0.718 | 0.512 | 0.428 | 0.348 | 0.302 | 0.455 | 0.399 | 0.357 | 0.339 | 0.272 | 0.21 | 0.16 | 0.143 | 0.122 | 0.137 |
| NCI-H727 | 0.73 | 0.593 | 0.719 | 0.61 | 0.641 | – | 0.801 | 0.657 | 0.487 | 0.59 | 0.793 | 0.694 | 0.499 | 0.588 | 0.529 | – | – | – | – | – |
| NCI-H1299 | 0.942 | 0.969 | 0.975 | 0.982 | 0.949 | 0.975 | 0.958 | 0.867 | 0.712 | 0.52 | – | – | – | – | – | – | – | – | – | – |
| NCI-H1648 | 0.985 | – | – | 0.558 | 0.673 | 0.604 | 0.577 | 1.35 | 1.26 | 1.5 | – | – | – | – | – | 1.01 | 1.13 | 0.828 | 0.964 | 0.78 |
| EBC-1 | 0.691 | 0.644 | 0.688 | 0.675 | 0.699 | 0.777 | 0.716 | 0.637 | 0.492 | 0.535 | – | – | – | – | – | – | – | – | – | – |
| IA-LM | 0.649 | 0.838 | 0.812 | 0.703 | 0.765 | 0.967 | 0.834 | 0.791 | 0.796 | 0.765 | – | – | – | – | – | – | – | – | – | – |
| ABC-1 | – | – | 0.646 | 0.649 | 0.536 | 0.632 | 0.589 | 0.74 | 0.386 | 0.458 | 0.23 | 0.266 | 0.209 | 0.277 | 0.217 | – | – | – | – | – |
| NCI-H1703 | 0.511 | 0.536 | 0.397 | 0.332 | 0.396 | 0.469 | 0.452 | 0.675 | 0.333 | 0.303 | – | – | – | – | – | – | – | – | – | – |
